According to US12491170B2, “Stable treprostinil prodrugs” (United Therapeutics Corporation, priority 2020, dated 2025):

Assays:
[1] = Stability in cryopreserved hepatocytes, human; details: for CLint, calculated (in parentheses) / Half-life, calculated (in parentheses) / CLint / Half-life: hepatocytes; for AUC / Mono AUC (treprostinil formed) / CLint / Half-life: human
[2] = Stability in cryopreserved hepatocytes, rat; details: for CLint, calculated (in parentheses) / Half-life, calculated (in parentheses) / CLint / Half-life: hepatocytes; for AUC / Mono AUC (treprostinil formed) / CLint / Half-life: rat
[3] = Stability in human subcutaneous skin homogenate; details: for AUC / Mono AUC (treprostinil formed): human
[4] = biological target: prostaglandin E2 (PGE2) receptor 2 (EP2) (Homo sapiens, UniProt P43116); test: EP2 receptor cAMP agonist assay (HEK293T cells); assay type: cell-based; set-up: key to EC50 Fold Different from Treprostinil, EP2 Receptor: NC = too inactive to realistically calculate; details: for Activity at the EP2 receptor compared to treprostinil: summary of findings; for EP2 Relative to Tre: Table 22, relative to treprostinil EC50 values, * partial agonists or ambiguous dose-response curves
Protocol: (§1) Cyclic AMP assay kit: Multiscreen™ TR-FRET cAMP 1.0 No Wash Assay Kit (Multispan, Inc.)
(§2) Cells were thawed from frozen cells and resuspended in assay buffer at desired concentrations. cAMP or Calcium assays were performed according to the manufacturer's protocol using Multiscreen™ TR-FRET cAMP 1.0 No Wash Assay Kit or Multiscreen™ Calcium 1.0 No Wash Kit.
(§3) Gas Cyclic AMP (cAMP) Assay: In agonist mode testing, cells were seeded in a 384-well plate at an appropriate density and then were treated with compounds and incubated at 37° C. for 20 minutes. The reaction was terminated by […] trFluor™ Eu-labeled cAMP and trFluor™ 650-labeled anti-cAMP antibody in lysis buffer. […] All testing wells contained 0.1% DMSO in the final concentrations.
(§4) Data in graphs are represented in Mean±SD. Dose-dependent responses were fitted with sigmoidal dose-response curves allowing variable slopes using GraphPad Prism version 6 (Graphpad Prism).
(§5) These studies used cell lines overexpressing either human IP, EP2 or DP1, or EP1 receptors, and following incubation with varying concentrations of compounds, cAMP levels were measured using Fluorescence Resonance Energy Transfer (FRET).

[5] = biological target: T1, prostaglandin D2 (PGD2) receptor 1 (DP1) (Homo sapiens, UniProt Q13258); test: DP1 receptor cAMP agonist assay (HEK293T cells); assay type: cell-based; details: for DP1 Relative to Tre: relative to treprostinil EC50 values, * partial agonists or ambiguous dose-response curves; for Activity at the DP1 receptor compared to treprostinil: summary of findings
T1 sequence (Q13258 1-359): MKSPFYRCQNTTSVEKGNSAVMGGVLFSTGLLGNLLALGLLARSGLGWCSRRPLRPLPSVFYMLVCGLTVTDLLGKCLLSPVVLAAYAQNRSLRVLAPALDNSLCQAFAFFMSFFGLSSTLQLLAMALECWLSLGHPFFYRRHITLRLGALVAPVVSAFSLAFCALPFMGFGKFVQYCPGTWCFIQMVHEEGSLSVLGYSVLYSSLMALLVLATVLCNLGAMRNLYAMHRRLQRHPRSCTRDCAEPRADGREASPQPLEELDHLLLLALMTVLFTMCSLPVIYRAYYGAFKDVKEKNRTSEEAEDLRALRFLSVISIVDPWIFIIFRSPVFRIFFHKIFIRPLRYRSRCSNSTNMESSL
Protocol: as §1, §2, §3, §4, §5

[6] = Table 18, * partial agonists or odd dose-response curves

Sequence of prostaglandin E2 (PGE2) receptor 2 (EP2) (P43116 whole entry): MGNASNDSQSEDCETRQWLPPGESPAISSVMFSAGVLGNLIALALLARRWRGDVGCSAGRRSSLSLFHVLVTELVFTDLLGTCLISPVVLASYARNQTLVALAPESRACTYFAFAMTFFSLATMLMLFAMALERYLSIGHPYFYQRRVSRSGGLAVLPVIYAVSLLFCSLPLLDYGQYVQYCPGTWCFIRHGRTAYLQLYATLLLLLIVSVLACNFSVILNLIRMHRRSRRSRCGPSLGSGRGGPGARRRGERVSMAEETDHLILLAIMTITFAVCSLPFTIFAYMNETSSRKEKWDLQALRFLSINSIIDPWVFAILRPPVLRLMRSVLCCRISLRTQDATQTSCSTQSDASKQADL

Compound	CLint, calculated (in parentheses) [1] [mL/min/mg protein]	Half-life, calculated (in parentheses) [1] [min]	AUC [1] [µmol·min/L]	Mono AUC (treprostinil formed) [1] [µmol·min/L]	CLint [1] [mL/min/mg protein]	Half-life [1] [min]	CLint, calculated (in parentheses) [2] [mL/min/mg protein]	Half-life, calculated (in parentheses) [2] [min]	AUC [2] [µmol·min/L]	Mono AUC (treprostinil formed) [2] [µmol·min/L]	CLint [2] [mL/min/mg protein]	Half-life [2] [min]	Mono AUC (treprostinil formed) [3] [µmol·min/L]	DP1 Relative to Tre ([5]; Table 22)	Treprostinil Concentration 0 min [1] [µM]	Treprostinil Concentration 120 min [1] [µM]	Treprostinil Concentration 0 min [2] [µM]	Treprostinil Concentration 120 min [2] [µM]	Treprostinil Concentration 0 min [3] [µM]	Treprostinil Concentration 30 min [3] [µM]	also measured
CCCCCC(CCC1C(OC(=O)OC)CC2Cc3c(cccc3OCC(=O)O)CC21)OC(=O)OC (stereo not shown) [Prodrug LXXI, treprostinil dicarbonate]	0.0516	8.96	26.57	26.6	> 0.0308	< 15	0.295	1.56	39.77	39.8	> 0.0308	< 15	0.3108	2181x*							AUC [3]: 0.3108 µmol·min/L; Activity at the EP2 receptor compared to treprostinil [4]: inactive; DP1 Relative to Tre ([5]; Table 23): 2181x*
CCCCCC(CCC1C(OC(=O)CC)CC2Cc3c(cccc3OCC(=O)O)CC21)OC(=O)CC (stereo not shown) [Prodrug LXX, treprostinil dipropionate]	0.185	2.50	56.2	56.2	> 0.0308	< 15	0.116	3.97	56.05	56.1	> 0.0308	< 15	5.303	410x	0.00542	0.413	0	0.405	0	0.0179	Trep Concentration (μM) 0 min [1]: 0.00542 µM; Trep Concentration (μM) 15 min [1]: 0.638 µM; Trep Concentration (μM) 30 min [1]: 0.556 µM; Trep Concentration (μM) 60 min [1]: 0.482 µM; Trep Concentration (μM) 120 min [1]: 0.413 µM; Trep Concentration (μM) 0 min [2]: 0 µM; Trep Concentration (μM) 15 min [2]: 0.606 µM; Trep Concentration (μM) 30 min [2]: 0.579 µM; Trep Concentration (μM) 60 min [2]: 0.484 µM; Trep Concentration (μM) 120 min [2]: 0.405 µM; Trep Concentration 0 min [3]: 0 µM; Trep Concentration 30 min [3]: 0.0179 µM; Trep Concentration 60 min [3]: 0.0411 µM; Trep Concentration 120 min [3]: 0.0972 µM; AUC [3]: 5.303 µmol·min/L; EC50 Fold Different from Treprostinil, EP2 Receptor [4, 6]: NC; Activity at the EP2 receptor compared to treprostinil [4]: inactive; EC50 Fold Different from Treprostinil, DP1 Receptor [5, 6]: 410x*; DP1 Relative to Tre ([5]; Table 23): 410x; Activity at the DP1 receptor compared to treprostinil [5]: several hundred-fold less active
CCCCCC(CCC1C(O)CC2Cc3c(cccc3OCC(=O)O)CC21)OC(=O)CC (stereo not shown) [Prodrug LV]				68.8						49.3			78.38	94x	0.113	0.527	0.0159	0.391	0.0045	0.545	EP2 Relative to Tre [4]: 50x

More lines, main results first:

CLint, calculated (in parentheses) [1] [mL/min/mg protein]	Half-life, calculated (in parentheses) [1] [min]	AUC [1] [µmol·min/L]	Mono AUC (treprostinil formed) [1] [µmol·min/L]	CLint [1] [mL/min/mg protein]	Half-life [1] [min]	CLint, calculated (in parentheses) [2] [mL/min/mg protein]	Half-life, calculated (in parentheses) [2] [min]	AUC [2] [µmol·min/L]	Mono AUC (treprostinil formed) [2] [µmol·min/L]	CLint [2] [mL/min/mg protein]	Half-life [2] [min]	Mono AUC (treprostinil formed) [3] [µmol·min/L]	DP1 Relative to Tre ([5]; Table 22)	Treprostinil Concentration 0 min [1] [µM]	Treprostinil Concentration 120 min [1] [µM]	Treprostinil Concentration 0 min [2] [µM]	Treprostinil Concentration 120 min [2] [µM]	Treprostinil Concentration 0 min [3] [µM]	Treprostinil Concentration 30 min [3] [µM]	Compound	also measured
			48.7						66.9			91.95	2x	0	0.540	0.128	0.53	0	0.6	CCCCCC(CCC1C(O)CC2Cc3c(cccc3OCC(=O)O)CC21)OP(=O)(O)O (stereo not shown) [Prodrug VI]	EP2 Relative to Tre [4]: 4x; EP2 Relative to Tre ([4]; listed as Prodrug VI repeat): 9x
			62.2						41.4			62.92	272x	0.00744	0.507	0.00292	0.503	0.0034	0.382	CCCCCC(CCC1C(O)CC2Cc3c(cccc3OCC(=O)O)CC21)OC(C)=O (stereo not shown) [Prodrug XLIII]	Treprostinil Concentration 60 min [3]: 0.583 µM; Treprostinil Concentration 120 min [3]: 0.839 µM; EP2 Relative to Tre [4]: 461x
0.276	1.67	49.92	49.9	> 0.0308	< 15	0.0697	6.63	32	32.0	> 0.0308	< 15	7.512		0.00458		0	0.274	0	0.02	treprostinil diacetate [Prodrug LXXII]	Trep Concentration (μM) 0 min [1]: 0.00458 µM; Trep Concentration (μM) 15 min [1]: 0.562 µM; Trep Concentration (μM) 30 min [1]: 0.491 µM; Trep Concentration (μM) 60 min [1]: 0.433 µM; Trep Concentration (μM) 0 min [2]: 0 µM; Trep Concentration (μM) 15 min [2]: 0.24 µM; Trep Concentration (μM) 30 min [2]: 0.301 µM; Trep Concentration (μM) 60 min [2]: 0.298 µM; Trep Concentration (μM) 120 min [2]: 0.274 µM; Trep Concentration 0 min [3]: 0 µM; Trep Concentration 30 min [3]: 0.02 µM; Trep Concentration 60 min [3]: 0.0556 µM; Trep Concentration 120 min [3]: 0.147 µM; AUC [3]: 7.512 µmol·min/L; Activity at the EP2 receptor compared to treprostinil [4]: non-traditional dose response curve; Activity at the DP1 receptor compared to treprostinil [5]: several hundred-fold less active
